Experimental data published in US9309276B2, “Synthetic lipid A derivative” (University of Georgia Research Foundation, Inc., priority 2007, dated 2016).

Target: T1, murine TLR4, MD2, and CD14 (Mus musculus, UniProt Q9JHF9+Q9QUK6)
T1 construct: host or cells: HEK 293T
T1 sequence (Q9QUK6 26-835): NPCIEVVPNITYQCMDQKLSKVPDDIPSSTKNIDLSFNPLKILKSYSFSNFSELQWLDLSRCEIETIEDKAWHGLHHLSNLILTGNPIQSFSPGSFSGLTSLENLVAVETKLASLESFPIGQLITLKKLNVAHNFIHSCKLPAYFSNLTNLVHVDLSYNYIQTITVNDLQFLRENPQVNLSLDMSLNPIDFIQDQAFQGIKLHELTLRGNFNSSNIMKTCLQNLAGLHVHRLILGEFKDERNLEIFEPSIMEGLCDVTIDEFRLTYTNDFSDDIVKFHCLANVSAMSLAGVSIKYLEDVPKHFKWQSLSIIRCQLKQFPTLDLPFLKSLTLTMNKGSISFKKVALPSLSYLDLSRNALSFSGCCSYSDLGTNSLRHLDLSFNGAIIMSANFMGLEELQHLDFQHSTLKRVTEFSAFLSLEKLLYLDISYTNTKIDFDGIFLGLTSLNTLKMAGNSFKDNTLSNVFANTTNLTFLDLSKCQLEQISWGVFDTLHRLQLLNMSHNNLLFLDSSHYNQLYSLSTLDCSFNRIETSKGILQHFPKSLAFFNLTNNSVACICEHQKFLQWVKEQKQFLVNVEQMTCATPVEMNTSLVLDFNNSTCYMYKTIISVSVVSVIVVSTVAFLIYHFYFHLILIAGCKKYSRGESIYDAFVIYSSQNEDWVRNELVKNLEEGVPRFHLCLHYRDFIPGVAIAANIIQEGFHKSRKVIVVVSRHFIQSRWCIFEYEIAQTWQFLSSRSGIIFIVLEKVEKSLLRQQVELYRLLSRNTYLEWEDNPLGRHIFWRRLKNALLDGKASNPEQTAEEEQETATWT
T1 sequence (Q9JHF9 19-160): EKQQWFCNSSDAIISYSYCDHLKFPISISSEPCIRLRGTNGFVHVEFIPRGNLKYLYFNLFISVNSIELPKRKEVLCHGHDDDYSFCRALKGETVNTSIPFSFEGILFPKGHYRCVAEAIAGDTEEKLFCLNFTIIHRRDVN
Experiment: NF-κB activation (luciferase reporter) in HEK 293T cells stably transfected with murine TLR4/MD2/CD14
Format: cell-based
Settings: for EC50: 4 h exposure, dual-luciferase, best-fit value
Protocol: Induction of NF-κB activation was determined in triplicate cultures of HEK 293T cells stably transfected with murine TLR4, MD2, and CD14 and transiently transfected with pELAM-Luc, pRL-TK, and pcDNA3 plasmids. Forty-four hours post-transfection, cells were treated with E. coli LPS or lipid A derivatives 1-5 at the indicated concentrations or were left untreated (control). Forty-eight hours post-transfection, NF-κB activation was determined by firefly luciferase activity relative to Renilla luciferase activity. In the transfection experiment shown, human TNF-α (10 ng/mL) induced 12.1±0.3-fold activation of NF-κB.
To obtain further support that the EC50 values of secreted TNF-α protein are not affected by transcriptional, translational, or protein processing processes, dose response curves for the activation of the transcription factor NF-κB were determined for each compound and the results compared with similar data for secretion of TNF-α protein. Thus, compounds 1-5, and E. coli LPS were exposed at a range of concentrations to HEK 293T cells stably transfected with […] TLR4/MD2/CD14 and transiently transfected with a plasmid containing the reporter gene pELAM-Luc (NF-κB dependent firefly luciferase reporter vector) and a plasmid containing the control gene pRL-TK (Renilla luciferase control reporter vector). As a negative control, wild type HEK 293T cells transiently transfected with plasmids containing the reporter gene pELAM-Luc and control gene pRL-TK were used. After an incubation time of 4 h, the activity was measured using a commercial dual-luciferase assay.
The day before transfection, HEK 293T wild type cells and HEK 293T cells stably transfected with murine TLR4/MD2/CD14 were plated in 96-well tissue culture plates (16,000 cells/well). The next day, cells were transiently transfected using PolyFect Transfection Reagent (Qiagen) with expression plasmids pELAM-Luc (NF-κB-dependent firefly luciferase reporter plasmid, 50 ng/well) (Chow et al., J. Biol. Chem. 1999, 274, 10689-10692) and pRL-TK (Renilla luciferase control reporter vector, 1 ng/well; Promega) as an internal control to normalize experimental variations. The empty vector pcDNA3 (Invitrogen) was used as a control and to normalize the DNA concentration for all of the transfection reactions (total DNA 70 ng/well). […] The luciferase activity was measured using the Dual-Luciferase Reporter Assay System (Promega) according to the manufacturer's instructions and the Fluoroskan Accent FL combination luminometer/fluorometer (Thermo Electron Corporation). […]
Concentration-response data were analyzed using nonlinear least-squares curve fitting in Prism (GraphPad Software, Inc.). […]

Row | Structure (SMILES) | NF-κB activation, mouse TLR4/MD2/CD14 (Example III, 104 at 0.1, 1 and 10 μg mL−1, E. coli LPS 10 ng mL−1, 4 h) | EC50 [µM]
1 | CCCCCCCCCCCCCCCC(=O)O[C@H](CCCCCCCCCCCC(C)C)CC(=O)N[C@H]1[C@H](OC[C@H]2O[C@H](OP(=O)(O)O)[C@H](NC(=O)C[C@H](O)CCCCCCCCCCCC(C)C)[C@@H](O)[C@@H]2O)O[C@H](CO)[C@@H](O)[C@@H]1ONC(=O)C[C@H](O)CCCCCCCCCC(C)C [Compound 104, 6-O-{2-Deoxy-2-[(R)-3-hexadecanoyloxy-15-methyl-hexadecanoylamino]-3-O—[(R)-3-hydroxy-13-methyl-tetradecanoylamino]-β-D-glucopyranosyl}-2-deoxy-2-[(R)-3-hydroxy-15-methyl-hexadecanoylamino]-α-D-glucopyranose 1-phosphate] | at high concentrations, compound 104 could induce NF-κB activation | 
2 | CCCCCCCCCCCCCC(=O)OC(CCCCCCCCCCC)CC(=O)OC1C(NC(=O)CC(CCCCCCCCCCC)OC(=O)CCCCCCCCCCC)C(OCC2OC(OP(=O)(O)O)C(NC(=O)CC(O)CCCCCCCCCCC)C(OC(=O)CC(O)CCCCCCCCCCC)C2O)OC(CO)C1OP(=O)(O)O [Lipid A 1, 6-O-{2-Deoxy-2-[(R)-3-dodecanoyloxy-tetradecanoylamino]-3-O—[(R)-3-tetradecanoyloxy-tetradecanoyl]-β-D-glucopyranosyl}-2-deoxy-3-O—[(R)-3-hydroxy-tetradecanoyl]-2-[(R)-3-hydroxy-tetradecanoylamino]-α-D-glucopyranose 1,4′-bisphosphate] |  | 0.038
3 | CCCCCCCCCCCC(=O)OC(CCCCCCCCCCC)CC(=O)NC1C(OCC2OC(OP(=O)(O)O)C(NC(=O)CC(O)CCCCCCCCCCC)C(OC(=O)CC(O)CCCCCCCCC)C2O)OC(CO)C(OP(=O)(O)O)C1OC(=O)CC(CCCCCCCCC)OC(=O)CCCCCCCCCCC [Lipid A 2, 6-O-{2-Deoxy-3-O—[(R)-3-dodecanoyloxy-dodecanoyl]-2-[(R)-3-dodecanoyloxy-tetradecanoylamino]-β-D-glucopyranosyl}-2-deoxy-3-O—[(R)-3-hydroxy-dodecanoyl]-2-[(R)-3-hydroxy-tetredecanoylamino]-α-D-glucopyranose 1,4′-bisphosphate] |  | 0.014
4 | CCCCCCCCCCCCCCCC(=O)OC(CCCCCCCCCCC)CC(=O)NC1C(OP(=O)(O)O)OC(COC2OC(CO)C(OP(=O)(O)O)C(OC(=O)CC(CCCCCCCCC)OC(=O)CCCCCCCCCCC)C2NC(=O)CC(CCCCCCCCCCC)OC(=O)CCCCCCCCCCC)C(O)C1OC(=O)CC(O)CCCCCCCCC [Lipid A 4, 6-O-{2-Deoxy-3-O—[(R)-3-dodecanoyloxy-dodecanoyl]-2-[(R)-3-dodecanoyloxy-tetradecanoylamino]-β-D-glucopyranosyl}-2-deoxy-2-[(R)-3-hexadecanoyloxy-tetredecanoylamino]-3-O—[(R)-3-hydroxy-dodecanoyl]-α-D-glucopyranose 1,4′-bisphosphate] |  | 0.053
